Measurements as given in paper PMC8956739, “A synthetic lipopeptide targeting top-priority multidrug-resistant Gram-negative pathogens” (Nature Communications, 2022).
Values after ≈ are worked out from the molar mass of the structure shown. Where two headings read alike, the source gives them in different places. Residues, ends and D or L forms follow the SMILES beside them.

Key:
cynomolgus monkeys = experiment: 14-day repeat-dose GLP toxicology study; conditions: cynomolgus monkey, in vivo
Method: (§1) A 14-day repeat-dose GLP toxicology study of F365 was conducted in Cynomolgus monkeys. The study complied with the OECD Principles of Good Laboratory Practice. […] Cynomolgus monkeys were approximately 2–4 years of age and weighed between 2.0 and 2.9 kg at the start of treatment. Four male and four female cynomolgus monkeys were used for each dose group. F365 (in 0.9% sodium chloride for injection) was administered four times daily (i.e. 6 h ± 15 min apart) as 60-min intravenous infusion at 5, 20, and 50 mg/kg/day for 14 consecutive days; the reference item (vehicle control) was also administered. Assessments of mortality checks, clinical observations, body weight, ophthalmology, and electrocardiography were conducted. Blood and urine samples were collected pre-treatment and at the end of the dosing period for hematology, clinical chemistry, coagulation, and urinalysis assessments. Other blood samples were collected after the first and last dose for toxicokinetic assessment. Following the end of the 14-day dosing period, animals were euthanized on Day 16 and examined macroscopically. Organ weights and macroscopic observations were recorded at necropsy for all groups. Histopathological examinations were performed on the specified tissues and organ list for animals across all groups.

[1] = 14-day repeat-dose GLP toxicology study; conditions: cynomolgus monkey, in vivo
Method: as §1

A. baumannii FADDI-AB161 = type: cell-based, Acinetobacter baumannii
In short: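 Each strain is tested in cation-adjusted Mueller–Hinton broth using the micro-dilution technique, and growth inhibition gives the MIC.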

[2] = Distribution, accumulation and metabolism in mouse kidneys (ME-SALDI-MS imaging, histology); type: in vivo; conditions: mouse, in vivo
Method: At 2 h after the last dose on Day 2, mice were rapidly euthanized. The left kidney was collected, flash-frozen in liquid nitrogen, and stored at -80 C for MS imaging analysis. The right kidney was fixed in 10% formalin for histological examination (Histopathology and Organ Pathology Unit at the University of Melbourne). The level of histological damage to the kidneys was graded as previously described. […] A total of 1 μL was spotted onto electrochemically etched, porous-silicon semiconductor substrates for desorption/ionization on silicon (DIOS)[39]. […] For lipopeptide distribution in mouse kidneys, serially sectioned 8-μm frozen slices of the kidney were loaded onto DIOS substrates and coated with a thin layer of α-CHCA using a matrix sprayer (TM-Sprayer, HTX) for MSI analysis. […] Mounted tissue was scanned for imaging alignment (Epson Perfection […]) and calibrated as previously described. Resulting polymyxin maps were visualized and normalized against the total ion current (TIC) of each section using IonView software (Shimadzu). Lipopeptide accumulation in mouse kidneys was determined by simultaneous […] analysis of kidney tissue from treated animals and serial dilutions of the drug deposited on control kidney tissue. […] The signal intensities were compared to the corresponding concentration standard curve to calculate the concentration of lipopeptide present. Putative metabolites in the kidneys treated with lipopeptides were identified by […]. Control kidney sections were used to differentiate lipopeptide metabolites from endogenous metabolites and MS/MS data from lipopeptide standards were used to differentiate lipopeptide metabolites from the parent ion generated via CID processed in the acquisition software (MALDI Solutions, Shimadzu). Levels of accumulated lipopeptide metabolites were determined by normalization to the parent ion in MSI data.

[3] = tested on: female cynomolgus monkeys; design: method as in earlier work; conditions: 3.8 mg/kg/12 h (7.6 mg/kg/day) for 7 days ref 27; cited from earlier work

With `CC[C@@H]1NC(=O)[C@@H](CC(C)C)NC(=O)[C@H](CCN)NC(=O)[C@@H](NC(=O)[C@H](CN)NC(=O)[C@@H](NC(=O)[C@H](CCN)NC(=O)c2ccc(Cl)cc2Cl)[C@@H](C)O)CCNC(=O)[C@H]([C@@H](C)O)NC(=O)[C@H](CCN)NC(=O)[C@H](CCN)NC1=O` [Lipopeptide F365] (HELM PEPTIDE1{[O=C(c1ccc(Cl)cc1Cl)[*:2]].[Dab].T.[NC[C@H](N[*:1])C(=O)[*:2]].[Dab].[Dab].[dL].[Abu].[Dab].[Dab].T}$PEPTIDE1,PEPTIDE1,5:R3-11:R2$$$V2.0) the “estimated dose that can be safely administered to patients” value (cynomolgus monkeys) was “at least 6.5 mg/kg/day”, the Kidney histopathology (cynomolgus monkeys; 5 mg/kg) was 8/8 no changes and the NOAEL [1] was ≥ 20 mg/kg/day. The AUC(0-t) ([1]; 5 mg/kg, Plasma AUC0-24 Day 1) was 24 µg·h/mL, the AUC(0-t) ([1]; 5 mg/kg, Plasma AUC0-24 Day 14) was 26.4 µg·h/mL and the AUC(0-t) ([1]; 20 mg/kg, Plasma AUC0-24 Day 1) was 97.2 µg·h/mL. The AUC(0-t) ([1]; 20 mg/kg, Plasma AUC0-24 Day 14) was 110 µg·h/mL, the AUC(0-t) ([1]; 50 mg/kg, Plasma AUC0-24 Day 1) was 246 µg·h/mL and the AUC(0-t) ([1]; 50 mg/kg, Plasma AUC0-24 Day 14) was 378 µg·h/mL. For the same molecule, the “MIC A. baumannii FADDI-AB161” value (A. baumannii FADDI-AB161; FADDI-AB161) was 1 µg/mL (≈ 0.862 µM), the level at time molar ([2]; female, Swiss, 10 umol/kg, 10 μmol/kg SC, 6 doses Day 1 and 3 doses Day 2, 2 h after last dose, read-out: Concentration in the kidney cortex region) was 20.8 µM and the “M1 metabolite in kidneys” value [2] was “no M1 metabolite detected”. For the same molecule, the “major metabolite in kidneys” value [2] was “M3”.
In the case of Polymyxin B [reference compound], the kidney findings [3] is given as “increased histological damage in all test animals” and the “MIC A. baumannii FADDI-AB161” value (A. baumannii FADDI-AB161; polymyxin-resistant) is given as 8 µg/mL.
